Results reported in patent publication US11566007B2, “Ras inhibitors” (Revolution Medicines, Inc., priority 2019, dated 2023).
Where “and” joins values, the source holds several entries; their conditions need not be identical. Identical values can stand only once.

What was measured:
[1] = system: NCI-H358 cells (K-Ras G12C); assay: Potency assay: pERK in NCI-H358 cells; assay type: cell-based, human; settings: Homo sapiens, NCI-H358; H358 KRAS G12C; read-out: pERK EC50
Outline: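 4 h cpd, 37 °C; 10-pt 3-fold series, 10 mM DMSO top stock, duplicates. Readout pERK: AlphaLISA SureFire Ultra or In-Cell Western (IR-800CW secondary, DRAQ5 DNA stain). IC50, 4-PL fit vs log conc.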

KRAS G12D = KRAS G12D (Homo sapiens (Human), UniProt P01116+P62937, G12D); assay: Ras-Raf (BRAF RBD) disruption / FRET / MOA assay, KRAS G12D; assay type: biochemical; settings: Ras-Raf disruption/FRET/MOA assay; class symbols; read-out: KRAS G12D FRET data IC50
Sequence of KRAS G12D (P01116-2 other isoform, or with tags, fused parts or gaps G12D): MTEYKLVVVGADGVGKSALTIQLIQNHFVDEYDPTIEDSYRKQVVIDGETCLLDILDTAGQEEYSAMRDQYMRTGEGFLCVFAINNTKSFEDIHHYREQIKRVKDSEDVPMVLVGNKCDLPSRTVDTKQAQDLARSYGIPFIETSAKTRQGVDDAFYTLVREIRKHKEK
Sequence of KRAS G12D (P62937 whole entry): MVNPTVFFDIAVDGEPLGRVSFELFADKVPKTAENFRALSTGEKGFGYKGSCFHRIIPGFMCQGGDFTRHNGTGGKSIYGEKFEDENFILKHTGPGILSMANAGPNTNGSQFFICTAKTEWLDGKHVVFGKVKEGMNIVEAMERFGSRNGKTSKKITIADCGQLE
Outline: (§1)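 Compound-driven ternary complex of nucleotide-loaded Ras with cyclophilin A, disrupting BRAF RBD binding. 10-point 3-fold dilution from 30 μM final, 3 h at 25° C, then anti-His Eu-W1024 (10 nM) and anti-GST allophycocyanin (50 nM) for 1.5 h. IC50 from TR-FRET ratio decrease versus DMSO.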

KRAS Q61H = KRAS Q61H (Homo sapiens (Human), UniProt P01116+P62937, Q61H); assay: Ras-Raf (BRAF RBD) disruption / FRET / MOA assay, KRAS Q61H; assay type: biochemical; settings: Ras-Raf disruption/FRET/MOA assay; class symbols; read-out: KRAS Q61H FRET data IC50
Sequence of KRAS Q61H (P01116-2 other isoform, or with tags, fused parts or gaps Q61H): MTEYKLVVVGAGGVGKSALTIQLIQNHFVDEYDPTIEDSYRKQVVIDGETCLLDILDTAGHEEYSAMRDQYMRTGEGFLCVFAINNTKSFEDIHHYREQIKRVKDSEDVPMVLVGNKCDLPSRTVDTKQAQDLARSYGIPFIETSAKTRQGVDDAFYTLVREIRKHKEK
Sequence of KRAS Q61H (P62937 whole entry): as the sequence (P62937 whole entry) above
Outline: (§2)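 Compounds (30 μM top final, 10-point 3-fold dilutions) incubated 3 h at 25° C with nucleotide-loaded Ras, cyclophilin A and BRAF RBD. Detection with 10 nM anti-His Eu-W1024 and 50 nM anti-GST allophycocyanin over another 1.5 h. Lowered TR-FRET ratio relative to DMSO wells gives IC50.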

NRAS G12C = NRAS G12C (Homo sapiens (Human), UniProt P01111+P62937, G12C); assay: Ras-Raf (BRAF RBD) disruption / FRET / MOA assay, NRAS G12C; assay type: biochemical; settings: read-out: IC50* NRAS G12C FRET data
Sequence of NRAS G12C (P01111 whole entry G12C): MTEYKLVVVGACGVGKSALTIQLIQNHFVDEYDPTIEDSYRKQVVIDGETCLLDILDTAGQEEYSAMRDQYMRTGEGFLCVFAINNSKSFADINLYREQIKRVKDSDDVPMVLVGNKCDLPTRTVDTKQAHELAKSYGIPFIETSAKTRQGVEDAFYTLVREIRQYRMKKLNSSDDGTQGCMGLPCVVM
Sequence of NRAS G12C (P62937 whole entry): as the sequence (P62937 whole entry) above
Outline: as §1

NRAS Q61R = NRAS Q61R (Homo sapiens (Human), UniProt P01111+P62937, Q61R); assay: Ras-Raf (BRAF RBD) disruption / FRET / MOA assay, NRAS Q61R; assay type: biochemical; settings: NRAS Q61R; Ras-Raf disruption/FRET/MOA assay; read-out: IC50* NRAS Q61R FRET data
Sequence of NRAS Q61R (P01111 whole entry Q61R): as the sequence (P01111 whole entry G12C) above, with C12G, Q61R counted along it
Sequence of NRAS Q61R (P62937 whole entry): as the sequence (P62937 whole entry) above
Outline: as §2

NRAS Q61K = NRAS Q61K (Homo sapiens (Human), UniProt P01111+P62937, Q61K); assay: Ras-Raf (BRAF RBD) disruption / FRET / MOA assay, NRAS Q61K; assay type: biochemical; settings: NRAS Q61K; Ras-Raf disruption/FRET/MOA assay; read-out: IC50* NRAS Q61K FRET data
Sequence of NRAS Q61K (P01111 whole entry Q61K): as the sequence (P01111 whole entry G12C) above, with C12G, Q61K counted along it
Sequence of NRAS Q61K (P62937 whole entry): as the sequence (P62937 whole entry) above
Outline: as §2

SMILES	EC50 [1]	IC50 (KRAS G12D)	IC50 (KRAS Q61H)	IC50 (NRAS G12C)	IC50 (NRAS Q61R)	IC50 (NRAS Q61K)
CCn1c(-c2cccnc2[C@H](C)OC)c2c3cc(ccc31)-c1csc(n1)C[C@H](NC(=O)[C@H](C(C)C)N(C)C(=O)N1CC(N(C)C(=O)/C=C/CN(C)C)C1)C(=O)N1CCC[C@H](N1)C(=O)OCC(C)(C)C2 (atropisomer, axis not shown) [Example A710]	< 5000 nM	100 to 1000 nM	10 to 100 nM	10 to 100 nM	100 to 1000 nM	10 to 100 nM
C=CC(=O)N1CC[C@]2(COCCN2C(=O)N(C)[C@H](C(=O)N[C@H]2Cc3nc(cs3)-c3ccc4c(c3)c(c(-c3cccnc3[C@H](C)OC)n4CC)CC(C)(C)COC(=O)[C@@H]3CCCN(N3)C2=O)C(C)C)C1 (atropisomer, axis not shown) [Example A676]	< 5000 nM	1000 to 10000 nM	10 to 100 nM	10 to 100 nM	100 to 1000 nM	100 to 1000 nM
CO[C@@H](C)c1ncccc1-c1c2c3cc(ccc3n1CC(F)(F)F)-c1cc(cc(C(F)F)c1)C[C@H](NC(=O)[C@@H](COC1CN(C(=O)C#CC(C)(C)N(C)C)C1)C(C)C)C(=O)N1CCC[C@H](N1)C(=O)OCC(C)(C)C2 (atropisomer, axis not shown) [Example A374]	< 5000 nM	> 10000 nM	> 10000 nM	100 to 1000 nM	> 10000 nM	> 10000 nM
C=CC(=O)N1CC[C@H](C(=O)N(C)[C@H](C(=O)N[C@H]2Cc3cc(O)cc(c3)-c3ccc4c(c3)c(c(-c3c(C)cccc3C)n4CC)CC(C)(C)COC(=O)[C@@H]3CCCN(N3)C2=O)C(C)C)C1 [Example A226]	< 5000 nM	> 10000 nM	1000 to 10000 nM	100 to 1000 nM	> 10000 nM	> 10000 nM
C=CC(=O)N1CC[C@@H]2[C@H](C1)CN2C(=O)N(C)[C@H](C(=O)N[C@H]1Cc2nc(cs2)-c2ccc3c(c2)c(c(-c2cccnc2[C@H](C)OC)n3CC)CC(C)(C)COC(=O)[C@@H]2CCCN(N2)C1=O)C(C)C (atropisomer, axis not shown) [Example A688]	< 5000 nM	1000 to 10000 nM	100 to 1000 nM	100 to 1000 nM	100 to 1000 nM	100 to 1000 nM
C=CC(=O)N1CC[C@H](C(=O)N(C)[C@H](C(=O)N[C@H]2Cc3cccc(c3)-c3ccc4c(c3)c(c(-c3cccnc3[C@H](C)OC)n4CC)CC(C)(C)COC(=O)[C@@H]3CCCN(N3)C2=O)[C@@H](C)C(F)(F)F)C1 (atropisomer, axis not shown) [Example A640]	< 5000 nM	1000 to 10000 nM	100 to 1000 nM	100 to 1000 nM	1000 to 10000 nM	1000 to 10000 nM
CCn1c(-c2cccnc2[C@H](C)OC)c2c3cc(ccc31)C1CCCN(C1)C[C@H](NC(=O)[C@@H](COC1CN(C(=O)C#CC(C)(C)N(C)C)C1)C(C)C)C(=O)N1CCC[C@H](N1)C(=O)OCC(C)(C)C2 [Example A646, (2R)-2-(((1-(4-(dimethylamino)-4-methylpent-2-ynoyl)azetidin-3-yl)oxy)methyl)-N-((6^3S,4S)-1^1-ethyl-1^2-(2-((S)-1-methoxyethyl)pyridin-3-yl)-10,10-dimethyl-5,7-dioxo-6^1,6^2,6^3,6^4,6^5,6^6-hexahydro-1^1H-8-oxa-1(5,3)-indola-6(1,3)-pyridazina-2(3,1)-piperidinacycloundecaphane-4-yl)-3-methylbutanamide]	< 5000 nM	> 10000 nM	> 10000 nM	10 to 100 nM	> 10000 nM	> 10000 nM
C=CC(=O)N1CCC2(CCCN(C(=O)N(C)[C@H](C(=O)N[C@H]3Cc4nc(cs4)-c4ccc5c(c4)c(c(-c4cccnc4[C@H](C)OC)n5CC)CC(C)(C)COC(=O)[C@@H]4CCCN(N4)C3=O)C(C)C)C2)CC1 (atropisomer, axis not shown) [Example A696]	< 5000 nM	100 to 1000 nM	10 to 100 nM	100 to 1000 nM	100 to 1000 nM	10 to 100 nM
C=CC(=O)N1CC[C@H](C(=O)N(C)[C@H](C(=O)N[C@H]2Cc3cc(ccn3)-c3ccc4c(c3)c(c(-c3cccnc3COC)n4CC)CC(C)(C)COC(=O)[C@@H]3CCCN(N3)C2=O)C(C)C)C1 [Example A136]	< 5000 nM	> 10000 nM	1000 to 10000 nM	1000 to 10000 nM	> 10000 nM	> 10000 nM
C=CC(=O)N1CC(OC[C@H](C(=O)N[C@H]2C[C@H]3CN(CCO3)c3ccc4c(c3)c(c(-c3cccnc3[C@H](C)OC)n4CC(F)(F)F)CC(C)(C)COC(=O)[C@@H]3CCCN(N3)C2=O)C(C)C)C1 (atropisomer, axis not shown) [Example A723]	< 5000 nM	> 10000 nM	1000 to 10000 nM	100 to 1000 nM	> 10000 nM	> 10000 nM
CO[C@@H](C)c1ncccc1-c1c2c3cc(ccc3n1CC(F)(F)F)-c1csc(n1)C[C@H](NC(=O)CCOC1CN(C(=O)C#CC(C)(C)N3CCC3)C1)C(=O)N1CCC[C@H](N1)C(=O)OCC(C)(C)C2 (atropisomer, axis not shown) [Example A363]	< 5000 nM	> 10000 nM	1000 to 10000 nM	10 to 100 nM	1000 to 10000 nM	1000 to 10000 nM
C=CC(=O)N(C)CCN1CCN(C(=O)N(C)[C@H](C(=O)N[C@H]2Cc3cccc(c3)-c3ccc4c(c3)c(c(-c3cccnc3[C@H](C)OC)n4CC)CC(C)(C)COC(=O)[C@@H]3CCCN(N3)C2=O)C(C)C)CC1 (atropisomer, axis not shown) [Example A539]	< 5000 nM	1000 to 10000 nM	100 to 1000 nM	100 to 1000 nM	100 to 1000 nM	100 to 1000 nM
CCn1c(-c2cccnc2[C@H](C)OC)c2c3cc(ccc31)-c1cccc(c1)C[C@H](NC(=O)[C@H](C(C)C)N1CC[C@]3(CCN(C(=O)C#C[C@H]4COCCN4C4COC4)C3)C1=O)C(=O)N1CCC[C@H](N1)C(=O)OCC(C)(C)C2 (atropisomer, axis not shown) [Example A568]	< 5000 nM	> 10000 nM	1000 to 10000 nM	100 to 1000 nM	> 10000 nM	> 10000 nM
C=CC(=O)N1CC[C@H](C(=O)N(C)[C@H](C(=O)N[C@H]2Cc3cc(O)cc(c3)-c3ccc4c(c3)c(c(-c3cccnc3[C@@H]3CCCO3)n4CC)CC(C)(C)COC(=O)[C@@H]3CCCN(N3)C2=O)C(C)C)C1 (atropisomer, axis not shown) [Example A281]	< 5000 nM	1000 to 10000 nM	10 to 100 nM	10 to 100 nM and 100 to 1000 nM	100 to 1000 nM	100 to 1000 nM
C=CC(=O)N1CCN(C(=O)N(C)[C@H](C(=O)N[C@H]2Cc3nc(cs3)-c3ccc4c(c3)c(c(-c3cccnc3[C@H](C)OC)n4CC)CC(C)(C)COC(=O)[C@@H]3CCCN(N3)C2=O)C(C)C)[C@H]2C[C@H]21 (atropisomer, axis not shown) [Example A737]	< 5000 nM	100 to 1000 nM	10 to 100 nM	10 to 100 nM	10 to 100 nM	10 to 100 nM
CC#CC(=O)N1CC(N(C)C(=O)N(C)[C@H](C(=O)N[C@H]2Cc3nc(cs3)-c3ccc4c(c3)c(c(-c3cccnc3[C@H](C)OC)n4CC)CC(C)(C)COC(=O)[C@@H]3CCCN(N3)C2=O)C(C)C)C1 (atropisomer, axis not shown) [Example A731]	< 5000 nM	1000 to 10000 nM	100 to 1000 nM	100 to 1000 nM	1000 to 10000 nM	100 to 1000 nM
C=C(OC)C(=O)N1CC(N(C)C(=O)N(C)[C@H](C(=O)N[C@H]2Cc3nc(cs3)-c3ccc4c(c3)c(c(-c3cccnc3[C@H](C)OC)n4CC)CC(C)(C)COC(=O)[C@@H]3CCCN(N3)C2=O)C(C)C)C1 (atropisomer, axis not shown) [Example A713]	< 5000 nM	1000 to 10000 nM	100 to 1000 nM	100 to 1000 nM	100 to 1000 nM	100 to 1000 nM
C=CC(=O)N1CC[C@H](C(=O)N(C)[C@H](C(=O)N[C@H]2Cc3cc(O)cc(c3)-c3ccc4c(c3)c(c(-c3cccc(=O)n3C(C)C)n4CC)CC(C)(C)COC(=O)[C@@H]3CCCN(N3)C2=O)C(C)C)C1 [Example A151]	< 5000 nM	> 10000 nM	1000 to 10000 nM	100 to 1000 nM	> 10000 nM	1000 to 10000 nM
CCn1c(-c2cccnc2[C@H](C)OC)c2c3cc(ccc31)-c1csc(n1)C[C@H](NC(=O)[C@H](C(C)C)N(C)C(=O)N1CCCOC13CN(C(=O)C#CC(C)(C)N(C)C)C3)C(=O)N1CCC[C@H](N1)C(=O)OCC(C)(C)C2 (atropisomer, axis not shown) [Example A666]	< 5000 nM	> 10000 nM	1000 to 10000 nM	1000 to 10000 nM	> 10000 nM	> 10000 nM
